From patent US20240132461A1, “FLAVONE DEAZA SPERMIDINE ANALOGUES AND THEIR USE TREATING CANCER” (FLORATEK PHARMA S.A., priority 2021, published 2024)

Columns and labels:
[1] = target: T1, RSK2(Kin.Dom.1-N-terminal) (Homo sapiens, UniProt P51812); experiment: KINOMEscan competition binding assay, RSK2(Kin.Dom.1-N-terminal)
T1 construct: RSK2(Kin.Dom.1-N-terminal); purchased Eurofins (KINOMEscan assay service); host or cells: E. coli BL21-derived (T7 phage) or HEK-293
From the text: (§1) The Hill Slope was set to −1.

ST-02-0322 = experiment: PDX cytotoxicity assay, stomach PDX ST-02-0322; assay type: cell-based
Method: (§2) PDX-derived cell cultures were obtained from tumors explanted from mice and isolated by mechanical and enzymatic dissociation. […] Cells were harvested and seeded in 96-wells plates at a density of 1.25 to 5×10^3 cells/well for cytotoxicity assays. Cells were incubated 48 h at 37° C. prior to addition of test molecules and vehicle (DMSO, 0.1%) at desired final concentrations. Cell viability was assessed before drugs' addition (T0) and 5 days after test molecules addition by measuring ATP cell content using CellTiter-Glo® Luminescent Cell Viability Assay (Promega) according to the manufacturer's instructions. Luciferase activity was measured on a luminometer (PerkinElmer® EnVision™). Each concentration of compounds was tested in triplicate.
(§3) Viability was calculated as a percentage of ATP value compared to vehicle treated controls.
(§4) For PDX primary cell cultures, the tumour tissue was washed with PBS containing antibiotic-antimycotic and non-tumour tissue and necrotic tumour tissues were separated. The tumour tissue was transferred to a new dish and cut into 1˜2 mm^3 fragments, resuspended in RPMI-1640 medium and centrifuged at 1,200 rpm for 6 min at room temperature. The pelleted material was resuspended with 15 mL of Tumour Cell Digestion Solution and incubated at 37° C. for 1 hour with agitation. […]

U-87MG = experiment: Cell viability assay, brain carcinoma cell line U-87MG; assay type: cell-based; conditions: Homo sapiens; U-87MG brain carcinoma cell line, 72 h, absolute IC50
Method: (§5) Antitumor activity of the compounds and doxorubicin as a positive control was assessed by using the CellTiter-Blue Cell Viability Assay (Promega, #G8082) or CellTiter-Glow® Luminescent Cell Viability assay (Promega # G7572) according to the manufacturer's instructions. The compounds were tested at 5 or 6 concentrations in half-log increments (highest concentration 30 μM-100 μM) in duplicate or triplicate well conditions.
(§6) Tumor cells were grown at 37° C. in a humidified atmosphere with 5% CO2 in RPMI 1640 or DMEM medium, supplemented with 10% (v/v) fetal calf serum and 50 μg/ml gentamicin for up to 20 passages, and were passaged once or twice weekly. Cells were harvested using TrypLE or PBS buffer containing 1 mM EDTA, and the percentage of viable cells is determined using a CASY Model TT cell counter (OMNI Life Science). Cells were harvested from exponential phase cultures, counted and plated in 96 well flat-bottom microtiter plates at a cell density depending on the cell line's growth rate (4,000-20,000 cells/well depending on the cell line's growth rate, up to 60,000 for hematological cancer cell lines) in RPMI 1640 or DMEM medium supplemented with 10% (v/v) fetal calf serum and 50 μg/ml gentamicin (140 μl/well). Cultures were incubated at 37° C. and 5% CO2 in a humidified atmosphere. After 24 h, 10 μl of test compounds or control medium are added, and left on the cells for another 72 h. Compounds were serially diluted in DMSO, transferred in cell culture medium, and added to the assay plates. The DMSO concentration was kept constant at <0.3% v/v across the assay plate. Viability of cells was quantified by the CellTiter-Blue® cell viability assay (Promega G8081) or CellTiter-Glow® Luminescent Cell Viability assay (Promega # G7572). Fluorescence (FU) was measured by using the EnSpire® multimode plate reader (Perkin Elmer) (excitation λ=570 nm, emission λ=600 nm) or luminescent detection of ATP in viable cells was used as parameter for proliferation. Luminescence was measured with the microplate luminometer (Promega or Perkin Elmer).
(§7) Sigmoidal concentration-response curves were fitted to the data points (test-versus-control, T/C values) obtained for each tumor model using 4 parameter non-linear curve fit (Charles River DRS Datawarehouse Software) or with GraphPad prism 5.02 software. IC50 values are reported as absolute IC50 values, being the concentration of test compound at the intersection of the concentration-response curves with T/C=50%

CH-17-0091 = experiment: PDX cytotoxicity assay, bile duct PDX CH-17-0091; assay type: cell-based
Method: as §2, §3, §4

breast cancer cell = experiment: Cell viability assay, breast cancer cell lines (summary); assay type: cell-based; conditions: summary of Tables 4A and 4B; read-out: IC50s, breast cancer cell growth
Method: as §5, §6, §7

PIM1 = target: T2, PIM1 (Homo sapiens, UniProt P11309); experiment: KINOMEscan competition binding assay, PIM1
T2 construct: purchased Eurofins (KINOMEscan assay service); host or cells: E. coli BL21-derived (T7 phage) or HEK-293
From the text: as §1

MCF-7 = experiment: Cell viability assay, breast carcinoma cell line MCF-7; assay type: cell-based; conditions: Homo sapiens, MCF7; MCF-7 breast carcinoma cell line
Method: as §5
(§8) Tumor cells were grown at 37° C. in a humidified atmosphere with 5% CO2 in RPMI 1640 or DMEM medium, supplemented with 10% (v/v) fetal calf serum and 50 μg/ml gentamicin for up to 20 passages, and were passaged once or twice weekly. Cells were harvested using TrypLE or PBS buffer containing 1 mM EDTA, and the percentage of viable cells is determined using a CASY Model TT cell counter (OMNI Life Science). Cells were harvested from exponential phase cultures, counted and plated in 96 well flat-bottom microtiter plates at a cell density depending on the cell line's growth rate (4,000-20,000 cells/well depending on the cell line's growth rate, up to 60,000 for hematological cancer cell lines) in RPMI 1640 or DMEM medium supplemented with 10% (v/v) fetal calf serum and 50 μg/ml gentamicin (140 μl/well). […] Viability of cells was quantified by the CellTiter-Blue® cell viability assay (Promega G8081) or CellTiter-Glow® Luminescent Cell Viability assay (Promega # G7572). […]

LY-24-0340 = experiment: PDX cytotoxicity assay, lymphoma PDX LY-24-0340; assay type: cell-based
Method: as §2, §3, §4

HBCx-3 = experiment: PDX cytotoxicity assay, breast PDX HBCx-3; assay type: cell-based
Method: as §2, §3, §4

DOHH-2 = experiment: Cell viability assay, lymphoma cell line DOHH-2; assay type: cell-based; conditions: Homo sapiens; DOHH-2 lymphoma cell line
Method: as §5, §8

PIM3 = target: T3, PIM3 (Homo sapiens, UniProt Q86V86); experiment: KINOMEscan competition binding assay, PIM3
T3 construct: purchased Eurofins (KINOMEscan assay service); host or cells: E. coli BL21-derived (T7 phage) or HEK-293
From the text: as §1

LU-01-0025 = experiment: PDX cytotoxicity assay, lung carcinoma PDX LU-01-0025; assay type: cell-based
Method: as §2, §3, §4

GA-10 = experiment: Cell viability assay, lymphoma cell line GA-10; assay type: cell-based; conditions: Homo sapiens; GA-10 lymphoma cell line
Method: as §5, §8

CO-04-0700 = experiment: PDX cytotoxicity assay, colon PDX CO-04-0700; assay type: cell-based
Method: as §2, §3, §4

COc1c(O)ccc2c(=O)cc(-c3ccc(CNCCCCNCCCN)cc3)oc12 [SND164]
Kd [1]: 1.4 µM | IC50 (ST-02-0322): 5.45 µM | IC50 (U-87MG): 5.7 µM | IC50 (CH-17-0091): 13.8 µM | IC50 (breast cancer cell): < 10 µM | Kd (PIM1): 0.58 µM | IC50 (MCF-7): 4.3 µM | IC50 (LY-24-0340): < 0.16 µM | IC50 (HBCx-3): 10 µM | IC50 (DOHH-2): 4.3 µM | Kd (PIM3): 0.43 µM | IC50 (LU-01-0025): 5 µM | IC50 (GA-10): 3.9 µM | IC50 (CO-04-0700): 7 µM
